Experimental data: patent publication US20240083846A1, “SMAC MIMETICS FOR TREATMENT OF CANCER, PROCESS FOR PREPARATION AND PHARMACEUTICAL COMPOSITION THEREOF” (COUNCIL OF SCIENTIFIC & INDUSTRIAL RESEARCH, priority 2020, published 2024)
Entries after “also recorded” stand apart in the source; their conditions may differ.

Legend:
HCT 116 cells = experiment: SRB cytotoxicity assay, HCT 116; assay type: cell-based; conditions: Homo sapiens, HCT-116
Procedure: (§1) In vitro cytotoxic activities of different compounds were assessed by using standard SRB assay in different cells. The absorbance of the treated and untreated cells was measured on a multi-well scanning spectrophotometer (Epoch Microplate Reader, Biotek, USA) at a wavelength of 510 nm. Percent growth inhibition was calculated by using the formula […].

B-16 cells = experiment: SRB cytotoxicity assay, B-16; assay type: cell-based; conditions: B16, Melanoma (Mouse)
Procedure: as §1
(§2) SMAC mimetics promotes tumor cell selective cytotoxic effects. SW 620, HT 29, HCT 116 and VERO cells were treated with series of Smac mimetics at 10 μM dose for 48 hours and cytotoxicity was measured by SRB assay. As C6 had shown robust in-vitro cytotoxic effect against tumor cells but not to VERO cells, we determined IC50 value of C6 against different types of cancer cell lines. ICso values are represented in Table 2.

HT29 cells = experiment: SRB cytotoxicity assay, HT29; assay type: cell-based; conditions: Homo sapiens, HT-29
Procedure: as §1

MCF-7 cells = experiment: SRB cytotoxicity assay, MCF-7; assay type: cell-based; conditions: Homo sapiens, MCF7, Breast
Procedure: as §1, §2

HCT-116 xenograft = HCT-116 xenograft model; assay type: in vivo, nude Crl: CD1-Foxnlnu mice; conditions: vs control
Description: (§3) All the animals were maintained in a pathogen-free facility under a day—night cycle.

MDAMB231 cells = experiment: SRB cytotoxicity assay, MDAMB231; assay type: cell-based; conditions: Homo sapiens, MDA-MB-231, Breast
Procedure: as §1, §2

[1] = Stability studies of C6 (SIF, SGF, plasma, microsomes); assay type: in vitro ADME
[2] = Pharmacokinetics of C6 in mice (IV, SC, oral)
Procedure: SIF, SGF and other stability studies were performed by following standard protocol. […] Mice were administered their respective doses according to body weight by intravenous (lateral vein), Subcutaneous route and Oral respectively. Blood samples were collected at 0.083, 0.25, 0.5, 0.75, 1, 2, 4, 8, 12, 24 and 48 hours. Plasma was separated and processed for analysis. For pharmacokinetic analysis, plasma concentration versus time data were plotted and analyzed by non-compartmental analysis method using WinNonlin (Pharsight, Mountain View, CA) software.

786-O cells = experiment: SRB cytotoxicity assay, 786-O; assay type: cell-based; conditions: Homo sapiens, 786-0, Kidney
Procedure: as §1, §2

[3] = tested on: XIAP and cIAP1 protein expression; experiment: Immunoblots from tumor tissues (in vivo target engagement); design: species or system mice; conditions: vs vehicle treated tumors
Procedure: Mice were randomly assigned to groups by a blinded independent investigator. Throughout the study, the tumor was measured with an electronic digital caliper at a regular interval, and the tumor volume was calculated using standard formula V=Π/6×a2×b, where ‘a’ is the short and ‘b’ is the long tumor axis. At the end of the experiment, mice were sacrificed, and subcutaneous tumors were dissected for further studies. Parts of harvested tumors were minced into small pieces with sterile forceps and scissors and homogenized for lysate preparation.

PANC-1 cells = experiment: SRB cytotoxicity assay, PANC-1; assay type: cell-based; conditions: Homo sapiens, Pancreas
Procedure: as §1, §2

SW 620 cells = experiment: SRB cytotoxicity assay, SW 620; assay type: cell-based; conditions: Homo sapiens, SW-620
Procedure: as §1

HEP-G2 cells = experiment: SRB cytotoxicity assay, HEP-G2; assay type: cell-based; conditions: Homo sapiens, HepG2, Liver
Procedure: as §1, §2

SW-620 xenograft = experiment: Cisplatin resistant SW-620 xenograft model; assay type: in vivo, nude Crl: CD1-Foxnlnu mice; conditions: FIG. 7
Description: as §3

[4] = Organ distribution analysis; assay type: in vivo, mice; conditions: FIG. 9 right panel
PC-3 cells = experiment: SRB cytotoxicity assay, PC-3; assay type: cell-based; conditions: Homo sapiens, Prostrate
Procedure: as §1, §2

A172 cells = experiment: SRB cytotoxicity assay, A172; assay type: cell-based; conditions: Homo sapiens, A 172, Brain
Procedure: as §1, §2

## CC[C@H](C)[C@H](NC(=O)[C@@H]1CC[C@H](c2ccc(C)o2)N1C(=O)[C@@H](NC(=O)[C@H](C)NC)C(C)C)C(=O)NC(c1ccccc1)c1ccccc1 [Compound 6, (2S,5R)-N-((2S,3S)-1-(benzhydrylamino)-3-methyl-1-oxopentan-2-yl)-1-((S)-3-methyl-2-((S)-2-(methylamino)propanamido)butanoyl)-5-(5-methylfuran-2-yl)pyrrolidine-2-carboxamide]
HCT 116 cells; 10 μM, 48 hours, SRB assay, read-out: In vitro cytotoxicity at 10 μM dose, HCT 116 (percent growth inhibition)
  inhibition at 10 µM: 61.3 ± 2.9%
HCT 116 cells; Colon, HCT116
  IC50: 8.93 µM
B-16 cells
  IC50: 6.7 µM
HT29 cells; 10 μM, 48 hours, SRB assay, read-out: In vitro cytotoxicity at 10 μM dose, HT29 (percent growth inhibition)
  inhibition at 10 µM: 65 ± 3.6%
HT29 cells; Colon, HT29
  IC50: 6.66 µM
MCF-7 cells
  IC50: 5.02 µM
HCT-116 xenograft; oral administration
  Xenograft tumor volume: markedly reduced
  Xenograft tumor weight: markedly reduced
HCT-116 xenograft; subcutaneous administration
  Xenograft tumor volume: markedly reduced
  Xenograft tumor weight: markedly reduced
MDAMB231 cells
  IC50: 4.15 µM
[1]; HLM
  Stability in HLM: quite stable
[1]; MLM
  Stability in MLM: quite stable
[1]; SGF, listed as C6
  Stability in SGF: highly stable; also recorded: quite stable
[1]; SIF, listed as C6
  Stability in SIF: highly stable; also recorded: quite stable
[1]; microsome
  Stability in microsome: highly stable
[1]; plasma
  Stability in plasma: quite stable
[2]; mice, IV route, 4 mg/kg
  C1: 17 ± 4 mL/min/kg
[2]; mice, Oral route, 30 mg/kg
  C1: 29.8 ± 5.33 mL/min/kg
  Vd: 9.52 ± 3.75 L/kg
[2]; mice, SC route, 30 mg/kg
  C1: 29.2 ± 4 mL/min/kg
  Vd: 5.32 ± 0.98 L/kg
[2]; mouse, plasma, iv, 4 mg/kg
  AUC(0-inf): 4110 ± 852 ng·h/mL
  Cmax: 10200 ± 2630 ng/mL
  MRT: 1.72 ± 0.46 h
  Tmax: 0.08 h
  Vd: 0.28 ± 0.12 L/kg
[2]; mouse, plasma, oral, 30 mg/kg
  bioavailability: 55.9 ± 11.2%
[2]; mouse, plasma, po, 30 mg/kg
  AUC(0-inf): 17200 ± 3430 ng·h/mL
  Cmax: 4490 ± 1510 ng/mL
  MRT: 4.18 ± 1.81 h
  Tmax: 1.08 ± 0.47 h
[2]; mouse, plasma, sc, 30 mg/kg
  AUC(0-inf): 17400 ± 2220 ng·h/mL
  Cmax: 5020 ± 854 ng/mL
  MRT: 8.92 ± 1.35 h
  Tmax: 0.88 ± 0.21 h
[2]; mouse, plasma, subcutaneous, 30 mg/kg
  bioavailability: 56.6 ± 7.21%
786-O cells
  IC50: 7.2 µM
[3]
  XIAP and cIAP1 protein expression in tumors: reduced XIAP and cIAP1 protein expression
PANC-1 cells
  IC50: 5.83 µM
SW 620 cells; 10 μM, 48 hours, SRB assay, read-out: In vitro cytotoxicity at 10 μM dose, SW 620 (percent growth inhibition)
  inhibition at 10 µM: 59.27 ± 0.1%
SW 620 cells; Colon, SW620
  IC50: 4.31 µM
HEP-G2 cells
  IC50: 7.3 µM
SW-620 xenograft
  In vivo anti tumor efficacy: potent anti tumor efficacy
[4]
  Presence in tumor tissues: presence of C6 in tumor tissues in significant quantity
PC-3 cells
  IC50: 6.02 µM
A172 cells
  IC50: 6.88 µM
